Measurements: patent publication US11534408B2, “Microcapsules and methods of using the same” (priority 2018, dated 2022)

System: Pseudomonas aeruginosa strain PAO1
Assay: Diffusion of antibiotic molecules through the membrane of PAO1 nanoculture capsules
Format: cell-based
Experimental: FIGS. 9A-9C provide representative brightfield images of the presently disclosed nanoculture capsules. Pseudomonas aeruginosa PAO1 strain was used as the bacterial inoculum for the inner phase of the capsules. Antibiotics, including tobramycin and tetracycline, were introduced 24 hours after encapsulation. (9A) Untreated PAO1 nanoculture after 24 hours. (9B) PAO1 nanoculture treated with 50 ug/ml tobramycin. (9C) PAO1 nanoculture treated with 50 ug/ml tetracycline.
The presently disclosed polymer was used to investigate the diffusion of antibiotic molecules through the membrane. Pseudomonas aeruginosa strain PAO1 was used as the bacterial inoculum for the inner phase of the nanoculture capsules. Antibiotics, including tobramycin and tetracycline, to which the PAO1 were sensitive, were introduced 24 hours after encapsulation. A 24-hour incubation period allowed for the confluent growth of PAO1. […] Microcapsules used in FIGS. 9A-9C were generated by using (H:V)=(0.6:1) with 3 ppm Pt catalyst and 0% DMAA. The generated microcapsules were heat treated for 5 minutes at 70° C. immediately after encapsulation. Following heat treatment, capsules were incubated at 37° C. for 24 hours.

In the case of `CN(C)[C@@H]1C(O)=C(C(N)=O)C(=O)[C@@]2(O)C(O)=C3C(=O)c4c(O)cccc4[C@@](C)(O)[C@H]3C[C@@H]12` [tetracycline], the “Ability to permeate and diffuse through the membrane” value (inferred from PAO1 killing at 50 ug/ml, membrane (H:V)=(0.6:1), 3 ppm Pt, 0% DMAA) is reported as “able to diffuse through the membrane”.
For `NC[C@H]1O[C@H](O[C@H]2[C@H](O)[C@@H](O[C@H]3O[C@H](CO)[C@@H](O)[C@H](N)[C@H]3O)[C@H](N)C[C@@H]2N)[C@H](N)C[C@@H]1O` [tobramycin], the “PAO1 cells in nanoculture capsules after antibiotic treatment” value (50 ug/ml antibiotic introduced 24 hours after encapsulation, capsules (H:V)=(0.6:1), 3 ppm Pt catalyst, 0% DMAA, heat treated 5 minutes at 70° C.) was “persisted” and the “Ability to permeate and diffuse through the membrane” value (not told) was “unable to permeate and diffuse through the membrane”.
